Experimental data taken from patent US10745814B2, “Enzymatic nucleic acid synthesis” (President and Fellows of Harvard College, priority 2016, dated 2020).

Molecular target: TdT (Bos taurus, UniProt P06526)
Test: Screen of nucleotides and nucleotide analogues as substrates for TdT-based DNA synthesis
Type: biochemical
Conditions: for efficiency as substrates of TdT compared to natural counterparts: analogues more positively charged than natural counterparts; for behavior with respect to TdT-based DNA synthesis (extension efficiency, rate, and extension length distribution): natural nucleotides compared with each other
Excerpt: Nucleotide analogues may be used as substrates for enzymatic synthesis using TdT. In the general scheme of the presently disclosed methods, the distribution of extension length by TdT is important to ensure efficient and reliable encoding of information into DNA.
These analogues include, but are not limited to, 5-Aminoallyl-dUTP and 5-Propargylamino-dUTP.

Sequence of TdT (P06526 whole entry): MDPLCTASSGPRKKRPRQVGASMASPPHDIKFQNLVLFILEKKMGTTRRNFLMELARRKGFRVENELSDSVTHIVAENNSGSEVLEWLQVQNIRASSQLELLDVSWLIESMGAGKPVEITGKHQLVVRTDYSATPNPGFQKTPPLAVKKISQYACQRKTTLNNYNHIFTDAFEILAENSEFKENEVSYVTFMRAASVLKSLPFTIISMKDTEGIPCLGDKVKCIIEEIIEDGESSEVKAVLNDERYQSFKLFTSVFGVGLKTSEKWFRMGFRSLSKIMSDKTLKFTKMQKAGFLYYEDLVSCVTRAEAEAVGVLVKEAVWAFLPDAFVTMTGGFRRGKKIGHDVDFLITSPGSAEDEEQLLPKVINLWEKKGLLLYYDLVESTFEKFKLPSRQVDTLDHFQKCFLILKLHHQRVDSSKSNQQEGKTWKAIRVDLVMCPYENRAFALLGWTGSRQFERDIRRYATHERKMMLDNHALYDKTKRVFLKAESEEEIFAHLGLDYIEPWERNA

| efficiency as substrates of TdT compared to natural counterparts | behavior with respect to TdT-based DNA synthesis (extension efficiency, rate, and extension length distribution) | SMILES |
| --- | --- | --- |
| – | poorest behavior | Nc1ncnc2c1ncn2[C@H]1C[C@H](O)[C@@H](COP(=O)(O)OP(=O)(O)OP(=O)(O)O)O1 [dATP] |
| – | most optimal behavior | Nc1ccn([C@H]2C[C@H](O)[C@@H](COP(=O)(O)OP(=O)(O)OP(=O)(O)O)O2)c(=O)n1 [dCTP] |
| – | poorest behavior | Nc1nc2c(ncn2[C@H]2C[C@H](O)[C@@H](COP(=O)(O)OP(=O)(O)OP(=O)(O)O)O2)c(=O)[nH]1 [dGTP] |

The next lines start with the compound.

| SMILES | efficiency as substrates of TdT compared to natural counterparts | behavior with respect to TdT-based DNA synthesis (extension efficiency, rate, and extension length distribution) |
| --- | --- | --- |
| NC/C=C/c1cn(C2CC(O)C(COP(=O)(O)OP(=O)(O)OP(=O)(O)O)O2)c(=O)[nH]c1=O (centres unmarked) [5-Aminoallyl-dUTP] | far more efficient substrates of TdT | – |
| NCC#Cc1cn(C2CC(O)C(COP(=O)(O)OP(=O)(O)OP(=O)(O)O)O2)c(=O)[nH]c1=O (centres unmarked) [5-Propargylamino-dUTP] | far more efficient substrates of TdT | – |
